Measured values published in patent US6610706B1, “Crystalline form of 6-hydroxy-3-(4-[2-(piperidin-1-yl)ethoxy]phenoxy)-2-(4-methoxyphenyl)benzo[b]thiophene hydrochloride” (Eli Lilly and Company, priority 1999, dated 2003).

Columns and labels:
Format in all cases: physicochemical
[1] = Hygroscopicity / moisture sorption isotherms (VTI vacuum moisture balance)
Description: Hygroscopicicity studies were performed on F-I and F-III. Upon initial exposure of the samples to approximately 5% RH, there was an immediate weight gain of 1.5% and 1.7% moisture for F-I and F-III, respectively, equivalent to approximately 0.5 mole of water. Both forms show a continuous sorption of moisture through the entire humidity range, which is likely due to incorporation of water molecules in the lattices. The moisture sorption profiles for F-I and F-III reveal that these forms are essentially non-stoichiometric hydrates. At ambient relative humidity (about 50% RH), F-I contains approximately 1.7% water, corresponding to 0.5 moles of water, while F-III has sorbed about 3.0% water which corresponds to about 0.85 moles of water. The bulk forms of F-I and F-III rapidly equilibrate with the atmosphere, so that the water content observed by analytical techniques is a reflection of the relative humidity at the time of data collection. Lot-to-lot differences observed in the DSC data likely results from the samples being hydrated to different extents due to different ambient storage conditions. Hygroscopicity measurements were made for F-I and F-III using the VTI method as follows. Each sample was dried under vacuum at 60° C. until no further weight loss was detected, at which time the sample chamber was brought to 0% relative humidity. Moisture sorption isotherms were obtained at 25° C. using a VTI vacuum moisture balance with the following conditions: sample size 10-15 mg, adsorption/desorption range 0-95% relative humidity, step interval 5%, sample interval 10 minutes.

[2] = Stability of crystal forms stored at different relative humidities (XRD); settings: entire relative humidity range (0-95% RH)
Description: XRD patterns were obtained for samples of F-I and F-III stored at different relative humidities (0, 22, 50, and 80%). There is a gradual shifting of the initial (0% RH) F-III peaks at about 13.8, 17.6, 18.0, 20.5 and 24.0° in 2θ as well as slight shifting of less intense peaks, as the relative humidity is increased. These observed changes in the XRD patterns of F-III indicate that the unit cell dimensions are changing, presumably to accommodate weakly held water molecules as the relative humidity is increased.
A similar experiment was carried out on F-I to determine whether varying the relative humidity would have a similar effect on its lattice (0, 25, 52, 73 and 95% RH). Very slight shifting of the 0% RH peaks at about 7.7, 18.3, 18.5, 20.5, 20.8° in 2θ is observed as the relative humidity is increased. […] The shifting of peaks in the XRD patterns of F-I is less dramatic than the peak shifts observed as F-III was exposed to different relative humidities.
XRD patterns were obtained on a Siemens D5000 X-ray powder diffractometer, equipped with a CuKα source (λ=1.54056 Å) and a Kevex solid-state detector, operating at 50 kV and 40 mA. Each sample was scanned between 4° and 35° in 2θ. Samples were allowed to equilibrate for at least 30 minutes at the desired temperature and/or relative humidity before data collection.

[3] = Aqueous solubility and dissolution rate comparison of crystal forms; settings: comparison of the two forms
[4] = Stability at ambient temperature relative to arzoxifene prepared per '474; settings: relative to arzoxifene produced by the procedures taught in '474

water content at ambient relative humidity ([1]; about 50% RH): about 3.0%
water content at ambient relative humidity, in moles of water ([1]; about 50% RH): about 0.85 moles
water equivalent of the initial weight gain ([1]; approximately 5% RH): approximately 0.5 mole
immediate weight gain (moisture) upon initial exposure ([1]; approximately 5% RH, 25° C., after vacuum drying at 60° C.): 1.7%
aqueous solubilities (F-I versus F-III) [3]: comparable
dissolution rates (F-I versus F-III) [3]: comparable
stability at ambient temperature [4]: more stable at ambient temperature
SMILES: COc1ccc(-c2sc3cc(O)ccc3c2Oc2ccc(OCCN3CCCCC3)cc2)cc1.Cl [F-III, 6-hydroxy-3-(4-[2-(piperidin-1-yl)ethoxy]phenoxy)-2-(4-methoxyphenyl)benzo[b]thiophene hydrochloride]
stability over relative humidity range [2]: stable over the entire relative humidity range
